Source: PubChem BioAssay (NCI)
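Method: 48-hour compound exposure of cells in 96-well plates, five concentrations, linear interpolation of endpoints. The concentration for full growth arrest is given as TGI.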

Experiments:
Assay in all cases: NCI anticancer screen, dose series, 48 h
SK-MEL-5 melanoma = test system: SK-MEL-5 melanoma
NCI-H23 lung = test system: NCI-H23 lung
HCC-2998 colon = test system: HCC-2998 colon
K-562 leukemia = test system: K-562 leukemia
SK-MEL-2 melanoma = test system: SK-MEL-2 melanoma
NCI-H522 lung = test system: NCI-H522 lung
OVCAR-4 ovarian = test system: OVCAR-4 ovarian
EKVX NSCLC = test system: EKVX NSCLC
CAKI-1 renal = test system: CAKI-1 renal
U251 CNS = test system: U251 CNS
SNB-75 CNS = test system: SNB-75 CNS
HT29 colon = test system: HT29 colon
SF-295 CNS = test system: SF-295 CNS
NCI-H226 lung = test system: NCI-H226 lung
A549 NSCLC = test system: A549 NSCLC
ACHN renal = test system: ACHN renal
HOP-92 NSCLC = test system: HOP-92 NSCLC
HOP-62 NSCLC = test system: HOP-62 NSCLC
COLO 205 colon = test system: COLO 205 colon
SF-539 CNS = test system: SF-539 CNS

Structure (SMILES) | TGI (SK-MEL-5 melanoma) | TGI (NCI-H23 lung) | TGI (HCC-2998 colon) | TGI (K-562 leukemia) | TGI (SK-MEL-2 melanoma) | TGI (NCI-H522 lung) | TGI (OVCAR-4 ovarian) | TGI (EKVX NSCLC) | TGI (CAKI-1 renal) | TGI (U251 CNS) | TGI (SNB-75 CNS) | TGI (HT29 colon) | TGI (SF-295 CNS) | TGI (NCI-H226 lung) | TGI (A549 NSCLC) | TGI (ACHN renal) | TGI (HOP-92 NSCLC) | TGI (HOP-62 NSCLC) | TGI (COLO 205 colon) | TGI (SF-539 CNS)
NC(=O)NC(CC(=O)O)C(=O)O (stereo not drawn) | > 100 µM | > 100 µM | > 100 µM | > 100 µM | > 100 µM | > 100 µM | > 100 µM | > 100 µM | > 100 µM | > 100 µM | > 100 µM | > 100 µM | > 100 µM | > 100 µM | > 100 µM | > 100 µM | > 100 µM | > 100 µM |  | 
CN(C)CCCc1cccnc1 | > 100 µM | > 100 µM | > 100 µM | > 100 µM | > 100 µM | > 100 µM | > 100 µM | > 100 µM | > 100 µM | > 100 µM | > 100 µM | > 100 µM | > 100 µM | > 100 µM | > 100 µM | > 100 µM | > 100 µM | > 100 µM | > 100 µM | 
Nc1ccc2cc(S(=O)(=O)O)cc(O)c2c1N=Nc1ccc(NC(=O)Nc2ccc(N=Nc3c(N)ccc4cc(S(=O)(=O)O)cc(O)c34)c(S(=O)(=O)O)c2)cc1S(=O)(=O)O | > 100 µM | > 100 µM | > 100 µM | > 100 µM | > 100 µM | > 100 µM | > 100 µM | > 100 µM |  | > 100 µM | > 100 µM | > 100 µM | > 100 µM | > 100 µM | > 100 µM |  | > 100 µM | > 100 µM | > 100 µM | > 100 µM
O=c1[nH]c(=O)n(C2CC(O)C(COP(=O)(O)OC3CC(n4cc(F)c(=O)[nH]c4=O)OC3COP(=O)(O)OC3CC(n4cc(F)c(=O)[nH]c4=O)OC3COP(=O)(O)OC3CC(n4cc(F)c(=O)[nH]c4=O)OC3COP(=O)(O)OC3CC(n4cc(F)c(=O)[nH]c4=O)OC3COP(=O)(O)OC3CC(n4cc(F)c(=O)[nH]c4=O)OC3COP(=O)(O)OC3CC(n4cc(F)c(=O)[nH]c4=O)OC3COP(=O)(O)OC3CC(n4cc(F)c(=O)[nH]c4=O)OC3COP(=O)(O)OC3CC(n4cc(F)c(=O)[nH]c4=O)OC3COP(=O)(O)OC3CC(n4cc(F)c(=O)[nH]c4=O)OC3CO)O2)cc1F (stereo not drawn) | > 50 µM | > 50 µM | > 50 µM | > 50 µM | > 50 µM |  | > 50 µM | > 50 µM | > 50 µM | > 50 µM | > 50 µM | > 50 µM | > 10 µM | > 50 µM | > 50 µM | > 50 µM | > 50 µM | > 50 µM | > 50 µM | < 0.005 µM
COc1cc(C2C(Cl)C(=O)N2NC(=O)c2ccc(NC(C)=O)cc2)cc(Br)c1O (stereo not drawn) | > 100 µM | > 100 µM | > 100 µM | > 100 µM | > 100 µM | > 100 µM |  |  |  | > 100 µM | > 100 µM | > 100 µM | > 100 µM | > 100 µM | > 100 µM | > 100 µM | > 100 µM | > 100 µM | > 100 µM | > 100 µM
O=C(N1CCOCC1)C1(c2ccccc2)CCNCC1 | > 100 µM | > 100 µM |  | > 100 µM | > 100 µM | > 100 µM | > 100 µM | > 100 µM | > 100 µM | > 100 µM | > 100 µM | > 100 µM | > 100 µM | > 100 µM | > 100 µM | > 100 µM | > 100 µM | > 100 µM | > 100 µM | > 100 µM
CCCCC(NC(=O)CC)C(=O)O (stereo not drawn) | > 100 µM | > 100 µM | > 31.6 µM | > 100 µM | > 100 µM | > 100 µM | > 100 µM | > 100 µM | > 100 µM | > 100 µM | > 100 µM | > 100 µM | > 100 µM | > 100 µM | > 100 µM |  | > 100 µM | > 100 µM | > 100 µM | > 100 µM
CCc1ccc(CCC(=O)O)nc1 | > 100 µM | > 100 µM | > 100 µM | > 100 µM | > 100 µM | > 100 µM | > 100 µM | > 100 µM | > 100 µM | > 100 µM | > 100 µM | > 100 µM | > 100 µM | > 100 µM | > 100 µM | > 100 µM | > 100 µM | > 100 µM | > 100 µM | > 100 µM
CCOc1ccc(C2=C(Cl)c3cc(OC)c(OC)cc3C2Cl)cc1 (stereo not drawn) | 39.3 µM | > 100 µM |  |  | 70.6 µM | 49 µM |  | > 100 µM | > 100 µM | 39.8 µM | > 100 µM | > 100 µM | > 100 µM | > 100 µM |  | > 100 µM | 86.5 µM |  | > 100 µM | > 100 µM
CC(N)C(=O)c1ccc(O)cc1 (stereo not drawn) | > 100 µM | > 100 µM | > 100 µM | > 100 µM | > 100 µM | > 100 µM | > 100 µM | > 100 µM | > 100 µM | > 100 µM | > 100 µM | > 100 µM | > 100 µM | > 100 µM | > 100 µM | > 100 µM | > 100 µM | > 100 µM | > 100 µM | > 100 µM
COc1nc(/C=N/NC(N)=S)nc(OC)n1 |  | > 100 µM | > 100 µM | > 100 µM | > 100 µM | > 100 µM | > 100 µM | > 100 µM | > 100 µM | > 100 µM | > 100 µM | > 100 µM | > 100 µM | > 100 µM | > 100 µM | > 100 µM | > 100 µM |  | > 100 µM | > 100 µM
CC(=O)Nc1ccc(C2=N/C(=C\c3ccc(Cl)c(Cl)c3)C(=O)O2)cc1 | > 100 µM | > 100 µM | > 100 µM | > 100 µM | > 100 µM | > 100 µM | > 100 µM | > 100 µM | > 100 µM | > 100 µM | > 100 µM | > 100 µM | > 100 µM | > 100 µM | > 100 µM | > 100 µM | > 100 µM | > 100 µM | > 100 µM | > 100 µM
CC1C(=O)C(C)C(c2cccs2)N(N=O)C1c1cccs1 (stereo not drawn) | > 100 µM | > 100 µM | > 100 µM | > 100 µM | > 100 µM | > 100 µM | > 100 µM | > 100 µM | > 100 µM | > 100 µM | > 93 µM | > 100 µM | > 100 µM | > 100 µM | > 100 µM |  | > 100 µM | > 100 µM | > 100 µM | > 100 µM
c1ccc2c(c1)ccc1ncccc12 | > 100 µM | > 100 µM | > 100 µM | > 100 µM | > 100 µM | > 100 µM | > 100 µM | > 100 µM | > 100 µM | > 100 µM | > 100 µM | > 100 µM | > 100 µM | > 100 µM | > 100 µM | > 100 µM | > 100 µM | > 100 µM | > 100 µM | > 100 µM
CN1C[C@H]2[C@@H](C1=O)[C@H](c1ccc([N+](=O)[O-])cc1)ON2C | > 100 µM | > 100 µM | > 100 µM | > 100 µM | > 100 µM | > 100 µM | > 100 µM |  | > 100 µM | > 100 µM |  | > 100 µM | > 100 µM | > 100 µM | > 100 µM | > 100 µM | > 100 µM | > 100 µM | > 100 µM | 
